# Data reported in patent publication US20020058701A1 (priority 2000, published 2002).
# How the values were obtained:
# [1] = Body weights and food consumption in diabetic db/db mice; format: in vivo; settings: for adverse effect on food intake or body weight (in words): Tables 9 and 11
# Experimental: (§1) Genetically altered obese diabetic mice (designated C57BL/ks diabetic or db/db) were purchased from the Jackson Laboratory (Bar Harbor, Me., USA), and served as experimental animals. Male animals between the ages of 8-9 weeks were employed in the studies described here. Animals were housed (4 mice/cage) under standard laboratory conditions at 22° C. and 50% relative humidity, and were maintained on a diet of Purina rodent chow and water ad libitum. Prior to treatment, blood was collected from the tail vein of each animal. Mice that had plasma glucose levels between 350 and 600 mg/dL were used. Each treatment group consisted of eight mice that were distributed so that the mean glucose levels were equivalent in each group at the start of the study. Db/db mice received, orally by gavage: the experimental compound administered at 62.5, 125, or 250 mg/kg/day (unless otherwise noted), or metformin administered at […] for 1-3 days. Test compounds were delivered in a liquid vehicle containing 0.25% (w/v) carboxymethyl-cellulose, 1% (v/v) Tween […] (polyoxyethylene sorbitan monosterate), and up to 10% (v/v) dimethyl sulfoxide (DMSO) in a volume of 10 ml/kg. Blood was sampled from the tail vein at three hours, six, eight, twenty-four, and thirty hours post-administration (the first administration) of the particular compound in non-fasted conditions. Experiments 3-5 also sampled blood at fifty-four hours post-administration (the first administration) of the particular compound in non-fasted conditions. Blood samples were analyzed for plasma glucose levels. Individual body weights and mean food consumption (each cage) were also measured daily.
# [2] = system: C57BL/ks diabetic (db/db) mice; test: Glucose-lowering (plasma glucose) in diabetic db/db mice; format: in vivo; settings: for Change in Glucose (mg/dL) 54 H: 54 h after initial dose; for reduction in plasma glucose relative to vehicle (control) (in words): oral, dose level of 125 mg/kg, Tables 8 and 10
# Experimental: as §1
# The isolated test substances were prepared as described previously (vide supra). Metformin (1,1-dimethylbiguanide), carboxymethyl cellulose and Tween 60 were purchased from Sigma Chemical Co. (St. Louis, Mo., USA; catalog #'s D-5035, C-4888, and p-1629, respectively). Plasma glucose levels were determined colorimetrically using glucose oxidase (Sigma Chemical Co.; Sigma catalog #315). Significant differences between groups (comparing compound-treated to vehicle-treated) were evaluated using analysis of variance and Fisher's post-hoc test.
# Vehicle, metformin (250 mg/kg) or enriched extract (1000 mg/kg) were given to db/db mice at 0(initial), 8, 24, 32, 48, 56, 72, 80, and 96 hours post initial dose.
# Plasma glucose levels were measured at baseline, 3 (day 1), 51 hours (Day 3), and 99 hours (Day 5).
# [3] = 125 mg/kg, vehicle 6.1, Table 11
# [4] = 125 mg/kg, vehicle 39.4 ± 0.4, Table 11
# [5] = 125 mg/kg, vehicle 40.1 ± 0.4, Table 11
# [6] = 125 mg/kg q.d. oral at 0, 24, 48 h, 6 h after initial dose, vehicle 15.5, Table 8
# [7] = 125 mg/kg q.d. oral at 0, 24, 48 h, 6 h after initial dose, vehicle 20.0, Table 10
# [8] = 125 mg/kg q.d. oral at 0, 24, 48 h, 30 h after initial dose, vehicle 0.1, Table 10
# [9] = 125 mg/kg q.d. oral at 0, 24, 48 h, 30 h after initial dose, vehicle 56.6, Table 8
# [10] = 125 mg/kg q.d. oral at 0, 24, 48 h, vehicle 88.6, Table 8
# [11] = 125 mg/kg q.d. oral at 0, 24, 48 h, vehicle −20.2, Table 10
# [12] = Table 8, printed dose 250 mg/kg, thirty hours after initial dosing, value = size of decline
# [13] = Table 10, 125 mg/kg, fifty-four hours after initial dosing, value = size of decline
# [14] = Table 10, 125 mg/kg, six hours after initial dosing, value = size of decline
# [15] = Table 10, 125 mg/kg, thirty hours after initial dosing, value = size of decline
# [16] = 125 mg/kg, vehicle 6.0, Table 9
# [17] = 125 mg/kg, vehicle 39.8 ± 0.7, Table 9
# [18] = 125 mg/kg, vehicle 39.7 ± 0.6, Table 9
# [19] = Tables 4 and 6, 250 mg/kg, fifty-four hours after initial dosing, value = size of decline
compound,measurement,setting,value
COc1cc(O)cc(CCc2ccccc2)c1CCC(C)C [Compound F],Food Intake (g/mouse) 0-48 h,[1]; [3],5.8 g/mouse
same,Body weight (g/mouse) (mean) 0 h,[1]; [4],39.3 ± 0.8 g/mouse
same,Body weight (g/mouse) (mean) 48 hr,[1]; [5],39.8 ± 0.8 g/mouse
COc1cc(O)cc(CCc2ccccc2)c1CC=C(C)C [Compound E],Change in Glucose (mg/dL) 6 H,[2]; [6],-2.1 mg/dL
same,Change in Glucose (mg/dL) 6 H,[2]; [7],-53.8 mg/dL
same,Change in Glucose (mg/dL) 30 H,[2]; [8],-109.9 mg/dL
same,Change in Glucose (mg/dL) 30 H,[2]; [9],-47.0 mg/dL
same,Change in Glucose (mg/dL) 54 H,[2]; [10],-54.7 mg/dL
same,Change in Glucose (mg/dL) 54 H,[2]; [11],-86.6 mg/dL
same,mean glucose levels declined from baseline values,"[2]; Table 8, 125 mg/kg, fifty-four hours after initial dosing, value = size of decline",54.7 mg/dL
same,mean glucose levels declined from the baseline value,[2]; [12],47.0 mg/dL
same,mean glucose levels declined from baseline values,[2]; [13],86.6 mg/dL
same,mean glucose levels declined from the baseline value,[2]; [14],53.8 mg/dL
same,mean glucose levels declined from the baseline value,[2]; [15],109.9 mg/dL
same,reduction in plasma glucose relative to vehicle (control) (in words),[2],statistically significant reduction
same,Food Intake (g/mouse) 0-48 h,[1]; [16],5.7 g/mouse
same,Food Intake (g/mouse) 0-48 h,[1]; [3],5.7 g/mouse
same,Body weight (g/mouse) (mean) 0 h,[1]; [4],39.6 ± 0.3 g/mouse
same,Body weight (g/mouse) (mean) 0 h,[1]; [17],39.5 ± 0.5 g/mouse
same,Body weight (g/mouse) (mean) 48 hr,[1]; [18],39.7 ± 0.6 g/mouse
same,Body weight (g/mouse) (mean) 48 hr,[1]; [5],40.2 ± 0.4 g/mouse
same,adverse effect on food intake or body weight (in words),[1]; 125 mg/kg,absence of any significantly adverse effect
"COc1cc(O)cc(/C=C/c2ccccc2)c1 [Compound B, 3-hydroxy-5-methoxystilbene]",Change in Glucose (mg/dL) 3 h,"[2]; 250 mg/kg oral, dosed at 0, 8 and 24 h, 3 h after initial dose, vehicle −8.0, Table 1",-35.3 mg/dL
same,Change in Glucose (mg/dL) 6 h,"[2]; 250 mg/kg oral, dosed at 0, 8 and 24 h, 6 h after initial dose, vehicle 64.5, Table 1",+29.3 mg/dL
same,Change in Glucose (mg/dL) 8 h,"[2]; 250 mg/kg oral, dosed at 0, 8 and 24 h, 8 h after initial dose, vehicle 79.5, Table 2",+52.2 mg/dL
same,Change in Glucose (mg/dL) 24 h,"[2]; 250 mg/kg oral, dosed at 0, 8 and 24 h, 24 h after initial dose, vehicle 18.6, Table 2",-50.6 mg/dL
same,Change in Glucose (mg/dL) 30 h,"[2]; 250 mg/kg oral, dosed at 0, 8 and 24 h, 30 h after initial dose, Table 2",+36.5 mg/dL
same,Food Intake (g/mouse) 0-24 h,"[1]; 250 mg/kg, 0-24 h, vehicle 6.8, Table 3",5.9 g/mouse
same,Body weight (g/mouse) (mean) 0 h,"[1]; 250 mg/kg, vehicle 38.0 ± 0.8, Table 3",37.8 ± 0.4 g/mouse
same,Body weight (g/mouse) (mean) 24 hr,"[1]; 250 mg/kg, 24 hr, vehicle 37.8 ± 0.8, Table 3",37.8 ± 0.4 g/mouse
"CN(C)C(=N)NC(=N)N [Metformin, 1,1-dimethylbiguanide, reference compound]",Change in Glucose (mg/dL) 6 H,"[2]; 250 mg/kg q.d. oral at 0, 24, 48 h, 6 h after initial dose, vehicle 35.9, Tables 4 and 6",-180.4 mg/dL
same,Change in Glucose (mg/dL) 30 H,"[2]; 250 mg/kg q.d. oral at 0, 24, 48 h, 30 h after initial dose, vehicle 79.6, Tables 4 and 6",-112.4 mg/dL
same,Change in Glucose (mg/dL) 54 H,"[2]; 250 mg/kg q.d. oral at 0, 24, 48 h, vehicle 60.3, Tables 4 and 6",-41.3 mg/dL
same,glucose levels rose,"[2]; Table 8, metformin 250 mg/kg, fifty-four hours after the initial dose, value = size of rise",6.8 mg/dL
same,lowered plasma glucose levels by,"[2]; Table 8, metformin 250 mg/kg, six hours after the initial dose, value = size of decline",approximately 113.6 mg/dL
same,lowered plasma glucose levels by,"[2]; Table 8, metformin 250 mg/kg, thirty hours after the initial dose, value = size of decline",~25.1 mg/dL
same,mean glucose levels declined from the baseline values,[2]; [19],41.3 mg/dL
same,mean glucose levels declined (lowered) from the baseline value,"[2]; Tables 4 and 6, 250 mg/kg, six hours after initial dosing, value = size of decline",approximately 180.4 mg/dL
same,mean glucose levels declined (lowered) from the baseline values,"[2]; Tables 4 and 6, 250 mg/kg, thirty hours after initial dosing, value = size of decline",~112.4 mg/dL
same,Change in Glucose (mg/dL) 6 H,"[2]; metformin 250 mg/kg q.d. oral, 6 h after initial dose, vehicle 15.5, Table 8",-113.6 mg/dL
same,Change in Glucose (mg/dL) 30 H,"[2]; metformin 250 mg/kg q.d. oral, 30 h after initial dose, vehicle 56.6, Table 8",-25.1 mg/dL
same,Change in Glucose (mg/dL) 54 H,"[2]; metformin 250 mg/kg q.d. oral, vehicle 88.6, Table 8",6.8 mg/dL
same,Day 1 glucose,"[2]; metformin 250 mg/kg, same schedule as extracts, 3 h post initial dose, vehicle −80.9",-180.5 mg/dL
same,Day 3 glucose,"[2]; metformin 250 mg/kg, same schedule as extracts, 51 h post initial dose, vehicle −77.1",-207.5 mg/dL
same,Day 5 glucose,"[2]; metformin 250 mg/kg, same schedule as extracts, 99 h post initial dose, vehicle +102.1",-86.4 mg/dL
same,Food Intake (g/mouse) 0-48 h,"[1]; 250 mg/kg, vehicle 6.0, Table 9",5.4 g/mouse
same,Food Intake (g/mouse) 0-48 h,"[1]; 250 mg/kg, vehicle 6.3, Tables 5 and 7",5.1 g/mouse
same,Body weight (g/mouse) (mean) 0 h,"[1]; 250 mg/kg, vehicle 39.2 ± 0.5, Tables 5 and 7",37.3 ± 0.7 g/mouse
same,Body weight (g/mouse) (mean) 0 h,"[1]; 250 mg/kg, vehicle 39.8 ± 0.7, Table 9",40.6 ± 0.4 g/mouse
same,Body weight (g/mouse) (mean) 48 hr,"[1]; 250 mg/kg, vehicle 39.5 ± 0.5, Tables 5 and 7",37.2 ± 0.6 g/mouse
same,Body weight (g/mouse) (mean) 48 hr,"[1]; 250 mg/kg, vehicle 39.7 ± 0.6, Table 9",40.5 ± 0.4 g/mouse
COc1cc(O)cc(CCc2ccccc2)c1 [Compound G],Change in Glucose (mg/dL) 6 H,[2]; [6],35.0 mg/dL
same,Change in Glucose (mg/dL) 30 H,[2]; [9],-12.2 mg/dL
same,Change in Glucose (mg/dL) 54 H,[2]; [10],12.0 mg/dL
same,mean glucose levels rose from the baseline values,"[2]; Table 8, 125 mg/kg, fifty-four hours after initial dosing, value = size of rise",12.0 mg/dL
same,mean glucose levels declined from the baseline value,[2]; [12],74.6 mg/dL
same,reduction in plasma glucose relative to vehicle (control) (in words),[2],statistically significant reduction
same,Food Intake (g/mouse) 0-48 h,[1]; [16],5.9 g/mouse
same,Body weight (g/mouse) (mean) 0 h,[1]; [17],39.0 ± 1.1 g/mouse
same,Body weight (g/mouse) (mean) 48 hr,[1]; [18],39.0 ± 1.1 g/mouse
same,adverse effect on food intake or body weight (in words),[1]; 125 mg/kg,absence of any significantly adverse effect
3-hydroxy-4-(3-methyl-2-butenyl)-5-methoxystilbene-2-carboxylic acid [Compound C],mean glucose levels declined from the baseline value,"[2]; Tables 4 and 6, 125 mg/kg, fifty-four hours after initial dosing, value = size of decline",60.4 mg/dL
same,mean glucose levels declined from the baseline values,[2]; [19],122.0 mg/dL
"COc1cc(/C=C/c2ccccc2)cc(O)c1CC=C(C)C [Compound D, 3-hydroxy-5-methoxy-4-(3-methyl-2-butenyl)stilbene]",Change in Glucose (mg/dL) 6 H,[2]; [7],[…]
same,Food Intake (g/mouse) 0-48 h,[1]; [3],5.7 g/mouse
same,Body weight (g/mouse) (mean) 0 h,[1]; [4],39.3 ± 0.6 g/mouse
same,Body weight (g/mouse) (mean) 48 hr,[1]; [5],39.7 ± 0.7 g/mouse
